The values that follow come from patent US20220289691A1, “5-AMINO-SUBSTITUTED PYRAZOLES AND TRIAZOLES AS PEST CONTROL AGENTS” (Bayer Aktiengesellschaft, priority 2019, published 2022).

What all share (type): in vivo
In assay [1] the test system is Boophilus microplus. Kind of assay: Boophilus microplus injection test. The following applies: 20 μg/animal, injection into engorged adult female cattle ticks, after 7 days. On the procedure:
Boophilus microplus—Injection Test
(§1) Solvent: Dimethyl Sulfoxide
To produce a suitable active compound formulation, 10 mg of active compound are mixed with 0.5 ml of solvent and the concentrate is diluted to the desired concentration with solvent.
1 μl of the active compound solution is injected into the abdomen of 5 engorged adult female cattle ticks (Boophilus microplus). The animals are transferred into dishes and kept in a climate-controlled room.
Efficacy is assessed after 7 days by laying of fertile eggs. Eggs which are not visibly fertile are stored in a climate-controlled cabinet until the larvae hatch after about 42 days. An efficacy of 100% means that none of the ticks has laid any fertile eggs; 0% means that all the eggs are fertile.

In assay [2] the test system is Ctenocephalides felis. As to the kind of experiment: Ctenocephalides felis oral test. As to conditions: 48 h, 100 ppm in citrated cattle blood, adult cat fleas, after 2 days, read-out: efficacy (kill). On the procedure: Ctenocephalides felis—Oral Test
as §1
To produce a suitable active compound formulation, 10 mg of active compound are mixed with 0.5 ml of dimethyl sulfoxide. Dilution with citrated cattle blood gives the desired concentration.
About 20 unfed adult cat fleas (Ctenocephalides felis) are placed into a chamber which is closed at the top and bottom with gauze. A metal cylinder whose bottom end is closed with parafilm is placed onto the chamber. The cylinder contains the blood/active compound formulation, which can be imbibed by the fleas through the parafilm membrane.
After 2 days, the kill in % is determined. 100% means that all of the fleas have been killed; 0% means that none of the fleas have been killed.

Assay [3] concerns Phaedon cochleariae. As to the kind of experiment: Phaedon cochleariae spray test. The following applies: foliar, 168 h, Chinese cabbage leaf discs, after 7 days, read-out: efficacy (beetle larvae killed). As for the experimental part:
Phaedon cochleariae—Spray Test Solvent: 78.0 parts by weight of acetone • • 1.5 parts by weight of dimethylformamide Emulsifier: alkylaryl polyglycol ether
(§2) To produce a suitable active compound formulation, 1 part by weight of active compound is dissolved using the stated parts by weight of solvent and made up with water containing an emulsifier concentration of 1000 ppm until the desired concentration is attained. To produce further test concentrations, the formulation is diluted with emulsifier-containing water.
Discs of Chinese cabbage leaves (Brassica pekinensis) are sprayed with an active compound formulation of the desired concentration and, after drying, populated with larvae of the mustard beetle (Phaedon cochleariae).
After 7 days, the efficacy in % is determined. 100% means that all the beetle larvae have been killed; 0% means that no beetle larvae have been killed.

For assay [4], the system named is Spodoptera frugiperda. As to the kind of experiment: Spodoptera frugiperda spray test. The following applies: foliar, 168 h, maize leaf discs, after 7 days, read-out: efficacy (caterpillars killed). In outline: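 Compound was dissolved in acetone/dimethylformamide and diluted with water containing 1000 ppm alkylaryl polyglycol ether emulsifier to test concentrations. Maize leaf discs were sprayed, dried and infested with fall armyworm caterpillars. Efficacy (% caterpillars killed) was scored after 7 days.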

The test system of assay [5] is Ctenocephalides felis. As to the kind of experiment: Ctenocephalides felis in vitro contact test with adult cat fleas. The following applies: 5 μg/cm^2 (=500 g of ai/ha), after 48 h, read-out: efficacy (fleas dead or moribund). As for the experimental part: Ctenocephalides felis—In Vitro Contact Tests with Adult Cat Fleas
For the coating of the test tubes, 9 mg of active compound are first dissolved in 1 ml of acetone p.a. and then diluted to the desired concentration with acetone p.a. 250 μl of the solution are distributed homogeneously on the inner walls and the base of a 25 ml glass tube by turning and rocking on an orbital shaker (rocking rotation at 30 rpm for 2 h). With 900 ppm of active compound solution and internal surface area 44.7 cm^2, given homogeneous distribution, an area-based dose of 5 μg/cm^2 is achieved.
After the solvent has evaporated off, the tubes are populated with 5-10 adult cat fleas (Ctenocephalides felis), sealed with a perforated plastic lid and incubated in a horizontal position at room temperature and ambient humidity. After 48 h, efficacy is determined. To this end, the tubes are stood upright and the fleas are knocked to the base of the tube. Fleas which remain motionless at the base or move in an uncoordinated manner are considered to be dead or moribund.
100% efficacy means that all the fleas were dead or moribund. 0% efficacy means that no fleas were harmed.

The subject of assay [6] is Diabrotica balteata. As to the kind of experiment: Diabrotica balteata spray test. The following applies: 168 h, beetle larvae on wheat, after 7 days, read-out: efficacy (wheat plant growth); for pest or weed control at 500 g/ha: 500 g/ha (=160 μg/cavity); for pest or weed control at 100 g/ha: 100 g/ha (=32 μg/cavity). In outline: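 Germinated wheat seedlings in agar multiwell plates were sprayed with compound in acetone/DMF with emulsifier-containing water, then infested with 10-20 Diabrotica balteata larvae. After 7 days, efficacy (%) scored by plant growth: 100% equals untreated, uninfested control, 0% no plants grown.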

The test system of assay [7] is Myzus persicae. Kind of assay: Myzus persicae oral test. As to conditions: 4 ppm, after 5 days. As for the experimental part:
Myzus persicae—Oral Test Solvent: 100 parts by weight of acetone
To produce a suitable active compound formulation, 1 part by weight of active compound is dissolved using the specified parts by weight of solvent and made up with water until the desired concentration is attained.
50 μl of the active compound formulation are transferred into microtitre plates and made up to a final volume of 200 μl with 150 μl of IPL41 insect medium (33%+15% sugar). Subsequently, the plates are sealed with parafilm, which a mixed population of green peach aphids (Myzus persicae) within a second microtitre plate is able to puncture and imbibe the solution through.
After 5 days, the efficacy in % is determined. 100% means that all the aphids have been killed; 0% means that no aphids have been killed.

Assay [8] deals with Nezara viridula. Kind of assay: Nezara viridula spray test. As to conditions: 500 g/ha, larvae on barley plants, after 4 days. As for the experimental part: Nezara viridula—Spray Test Solvent: 78.0 parts by weight of acetone • • 1.5 parts by weight of dimethylformamide Emulsifier: alkylaryl polyglycol ether
as §2
Barley plants (Hordeum vulgare) are sprayed with an active compound formulation of the desired concentration and are infected with larvae of the Southern green shield bug (Nezara viridula).
After 4 days, the efficacy in % is determined. 100% means that all of the shield bugs have been killed; 0% means that none of the shield bugs have been killed.

The test system of assay [9] is Musca domestica. Kind of assay: Musca domestica test. The following applies: 100 ppm, adult houseflies, after 2 days. As for the experimental part:
as §1
To produce a suitable active compound formulation, 10 mg of active compound are mixed with 0.5 ml of dimethyl sulfoxide, and the concentrate is diluted with water to the desired concentration.
Vessels containing a sponge treated with sugar solution and the desired concentration of active compound formulation are populated with 10 adult houseflies (Musca domestica).
After 2 days, the kill in % is determined. 100% means that all of the flies have been killed; 0% means that none of the flies have been killed.

Assay [10] relates to Tetranychus urticae. Kind of assay: Tetranychus urticae spray test, OP-resistant. The following applies: 100 g/ha. As for the experimental part: Tetranychus urticae—Spray Test, OP-Resistant Solvent: 78.0 parts by weight of acetone • • 1.5 parts by weight of dimethylformamide Emulsifier: alkylaryl polyglycol ether
as §2
Discs of bean leaves (Phaseolus vulgaris) infested with all stages of the greenhouse red spider mite (Tetranychus urticae) are sprayed with an active compound formulation of the desired concentration.
After 6 days, the efficacy in % is determined. 100% means that all the spider mites have been killed; 0% means that no spider mites have been killed.

As to `CCC(=O)Nc1nc(-c2ccc(NC(=O)O[C@@H]3O[C@@H](C)[C@H](OC)[C@@H](OC)[C@H]3OC)cc2)nn1-c1ccc(OC(F)(F)C(F)(F)F)cc1` [Compound I-003], the “efficacy (laying of fertile eggs)” value in [1] is given as 100%. Also, the pest or weed control at 100 ppm in assay [2] worked out at 100%. For the same compound, in [3], the pest or weed control at 100 g/ha worked out at 100% and the pest or weed control at 500 g/ha came to 100%. In addition, in assay [4], the pest or weed control at 100 g/ha was determined as 100% and the pest or weed control at 500 g/ha was 100%.

Consider `CCO[C@@H]1[C@@H](OC)[C@H](C)O[C@@H](OC(=O)Nc2ccc(-c3nc(NC(=O)CC)n(-c4ccc(OC(F)(F)F)cc4)n3)cc2)[C@@H]1OC` [Compound I-007], for which the “efficacy (laying of fertile eggs)” value in [1] came out at 100%. Further, the pest or weed control at 100 ppm in [2] turned out to be 90%. Besides, in assay [3], the pest or weed control at 100 g/ha was 100% and the pest or weed control at 500 g/ha came to 100%. For the same compound, the pest or weed control at 500 g/ha in assay [4] was determined as 100%.

With `CNc1nc(-c2ccc(C=NNC(=S)Nc3ccccc3C(C)C)cc2)nn1-c1ccc(OC(F)(F)F)cc1` [Compound I-018, 1-(2-isopropylphenyl)-3-[[4-[5-(methylamino)-1-[4-(trifluoromethoxy)phenyl]-1,2,4-triazol-3-yl]phenyl]methyleneamino]thiourea], the pest or weed control at 5 µg/cm2 in assay [5] is 80%. The pest or weed control at 100 ppm in [2] came out at 95%. The pest or weed control at 125 g/ha in assay [6] (125 g/ha (=40 μg/cavity)) was determined as 100%. Further, the pest or weed control at 500 g/ha in assay [6] is 100%. The “efficacy (aphids killed)” value in [7] was 90%. Moreover, the “efficacy (shield bugs killed)” value in assay [8] is 100%. Besides, in assay [4], the pest or weed control at 100 g/ha came to 100%.

`CCO[C@@H]1[C@@H](OC)[C@H](C)O[C@@H](OC(=O)Nc2ccc(-c3nc(NC(=O)CC)n(-c4ccc(OC(F)(F)C(F)(F)F)cc4)n3)cc2)[C@@H]1OC` [Compound I-005]: the “efficacy (laying of fertile eggs)” value in assay [1] was found to be 90%. For the same compound, the pest or weed control at 100 ppm in assay [2] was 100%. The “efficacy (kill)” value in assay [9] stood at 80%. In assay [3], the pest or weed control at 100 g/ha came out at 100% and the pest or weed control at 500 g/ha worked out at 100%. Besides, in [4], the pest or weed control at 100 g/ha worked out at 100% and the pest or weed control at 500 g/ha is 100%.

For `CC(C)c1ccccc1NC(=S)NN=Cc1ccc(-c2nc(NC3CSC3)n(-c3ccc(OC(F)(F)F)cc3)n2)cc1` [Compound I-057], in assay [6], the pest or weed control at 100 g/ha is 100% and the pest or weed control at 500 g/ha came out at 100%. Moreover, the “efficacy (aphids killed)” value in assay [7] stood at 90%. In addition, the pest or weed control at 100 g/ha in assay [4] is 100%.

For the compound `CCOCCNc1nc(-c2ccc(C=NNC(=S)Nc3ccccc3C(C)C)cc2)nn1-c1ccc(OC(F)(F)F)cc1` [Compound I-060], the pest or weed control at 100 g/ha in assay [6] and in assay [4] was 100% throughout. In addition, in [6], the pest or weed control at 500 g/ha came to 100%. In addition, in [10] (bean leaf discs, all stages, after 6 days), the “efficacy (spider mites killed)” value was 90%.

As for `CCO[C@@H]1[C@@H](OC)[C@H](C)O[C@@H](OC(=O)Nc2ccc(-c3nc(NC(C)=O)n(-c4ccc(OC(F)(F)F)cc4)n3)cc2)[C@@H]1OC` [Compound I-001, [(2S,3R,4R,5S,6S)-4-ethoxy-3,5-dimethoxy-6-methyl-tetrahydropyran-2-yl]N-[4-[5-acetamido-1-[4-(trifluoromethoxy)phenyl]-1,2,4-triazol-3-yl]phenyl]carbamate], the pest or weed control at 500 g/ha in assay [3] is 100%. Also, in assay [4], the pest or weed control at 100 g/ha was found to be 100% and the pest or weed control at 500 g/ha came out at 100%. Also, the “efficacy (spider mites killed)” value in assay [10] (foliar, 144 h) was determined as 90%.

For the compound `CCO[C@@H]1[C@@H](OC)[C@H](C)O[C@@H](OC(=O)Nc2ccc(-c3nc(NC(C)=O)n(-c4ccc(OC(F)(F)C(F)(F)F)cc4)n3)cc2)[C@@H]1OC` [Compound I-006], the pest or weed control at 100 ppm in assay [2] was found to be 95%. Besides, the “efficacy (kill)” value in assay [9] is 80%. In [3], the pest or weed control at 100 g/ha came out at 100% and the pest or weed control at 500 g/ha was 100%. In addition, in assay [4], the pest or weed control at 100 g/ha was 100% and the pest or weed control at 500 g/ha worked out at 100%. Moreover, in [10] (foliar, 144 h), the “efficacy (spider mites killed)” value is 100%.
